According to PubChem BioAssay AID2060612 (Molecular Pharmacology Branch, DTP, NCI, 2025):
“And” between values parts separate entries of the source, which are not always exact repeats. Equal entries are not always repeated.

Test system: 565232-114-T-J1-PDC complex spheroid viability
Assay: Anticancer human tumor 565232-114-T-J1-PDC patient-derived bladder carcinoma cell line growth inhibition [CLK]
Details: for viability, T/C: stronger effect = lower value; active = viability on the fitted dose curve at most 10% of control; inactive = the rest
Procedure, shortened: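 Patient-derived tumor cells grown as complex spheroids with HUVEC endothelial cells and mesenchymal stem cells, treated with drug combinations. Concentrations descend in half-log steps from near clinical Cmax, or from 10 microM if Cmax unknown.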

[1] = curve of first compound, second compound 0.0316 µM
[2] = curve of first compound, second compound 0.1 µM
[3] = curve of first compound, second compound 0.316 µM
[4] = curve of first compound, second compound 1 µM
[5] = curve of first compound, second compound 3.16 µM
[6] = curve of first compound, second compound 10 µM
[7] = second compound 0.0316 µM, first compound 0.0316 µM
[8] = second compound 0.0316 µM, first compound 0.1 µM
[9] = second compound 0.0316 µM, first compound 0.316 µM
[10] = second compound 0.0316 µM, first compound 1 µM
[11] = second compound 0.0316 µM, first compound 3.16 µM
[12] = second compound 0.0316 µM, first compound 10 µM
[13] = second compound 0.1 µM, first compound 0.0316 µM
[14] = second compound 0.1 µM, first compound 0.1 µM
[15] = second compound 0.1 µM, first compound 0.316 µM
[16] = second compound 0.1 µM, first compound 1 µM
[17] = second compound 0.1 µM, first compound 3.16 µM
[18] = second compound 0.1 µM, first compound 10 µM
[19] = second compound 0.316 µM, first compound 0.0316 µM
[20] = second compound 0.316 µM, first compound 0.1 µM
[21] = second compound 0.316 µM, first compound 0.316 µM
[22] = second compound 0.316 µM, first compound 1 µM
[23] = second compound 0.316 µM, first compound 3.16 µM
[24] = second compound 0.316 µM, first compound 10 µM
[25] = second compound 1 µM, first compound 0.0316 µM
[26] = second compound 1 µM, first compound 0.1 µM
[27] = second compound 1 µM, first compound 0.316 µM
[28] = second compound 1 µM, first compound 1 µM
[29] = second compound 1 µM, first compound 3.16 µM
[30] = second compound 1 µM, first compound 10 µM
[31] = second compound 3.16 µM, first compound 0.0316 µM
[32] = second compound 3.16 µM, first compound 0.1 µM
[33] = second compound 3.16 µM, first compound 0.316 µM
[34] = second compound 3.16 µM, first compound 1 µM
[35] = second compound 3.16 µM, first compound 3.16 µM
[36] = second compound 3.16 µM, first compound 10 µM
[37] = second compound 10 µM, first compound 0.0316 µM
[38] = second compound 10 µM, first compound 0.1 µM
[39] = second compound 10 µM, first compound 0.316 µM
[40] = second compound 10 µM, first compound 1 µM
[41] = second compound 10 µM, first compound 3.16 µM
[42] = second compound 10 µM, first compound 10 µM
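Also: spheroids exposed to compounds for 7 days before readout.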
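For viability, T/C in this document: 100% = DMSO vehicle wells with luminescence normalized to vehicle control.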

CC(CO)NC(=O)c1cc(-c2ccc(Cl)cc2)nn(-c2cnn(C)c2)c1=O (stereo not drawn) + CN1CCN(c2cc(C(=O)Nc3cc4cc(-c5cnn(C)c5)ccc4cn3)ccn2)CC1
< 31.6 nM: IC50 [3] | IC50 [4] | IC50 [5] | IC50 [6]
inactive: viability, T/C [7] 104% | viability, T/C [8] 73.7% | viability, T/C [9] 86.5% | viability, T/C [10] 86.2% | viability, T/C [11] 93.7% | viability, T/C [12] 103% | viability, T/C [13] 92% | viability, T/C [14] 91% | viability, T/C [15] 96.7% | viability, T/C [16] 89.7% | viability, T/C [17] 124% | viability, T/C [18] 120% | viability, T/C [19] 22.2% | viability, T/C [20] 21% | viability, T/C [21] 27.3% | viability, T/C [22] 23.4% | viability, T/C [23] 24.6% | viability, T/C [24] 26.9%
active: viability, T/C [25] 0.2% | viability, T/C [26] 2.31% | viability, T/C [27] 1.11% | viability, T/C [28] 0.21% | viability, T/C [29] 2.03% | viability, T/C [30] 3.08% | viability, T/C [31] 0.21% | viability, T/C [32] 0.65% | viability, T/C [33] 4.15% | viability, T/C [34] 0.22% | viability, T/C [35] 2.88% | viability, T/C [36] 2.53% | viability, T/C [37] 0.26% | viability, T/C [38] 0.28% | viability, T/C [39] 2.2% | viability, T/C [40] 1.23% | viability, T/C [41] 4.13% | viability, T/C [42] 3.6%
> 10000 nM: IC50 [1] | IC50 [2]

C=C(F)C(=O)N1CCN(c2nc(OCC3CCCN3C)nc3c2CCN(c2cccc4cccc(Cl)c24)C3)CC1CC#N (stereo not drawn) + CNC(=O)c1ccc(Nc2nc(OC3CCCC3)c3c(-c4ccc5nc(C)oc5c4)c[nH]c3n2)c(OC)c1
< 31.6 nM: IC50 [3] | IC50 [4] | IC50 [5] | IC50 [6]
active: viability, T/C [12] 0.2% | viability, T/C [18] 0.17% | viability, T/C [24] 0.14% | viability, T/C [36] 0.17% | viability, T/C [42] 0.23%
5870 nM: IC50 [1]
inactive: viability, T/C [7] 116% | viability, T/C [8] 79.8% | viability, T/C [9] 116% | viability, T/C [10] 101% | viability, T/C [11] 127% | viability, T/C [13] 57.3% | viability, T/C [14] 58.6% | viability, T/C [15] 53.5% | viability, T/C [16] 68.6% | viability, T/C [17] 68.4% | viability, T/C [19] 35.9% | viability, T/C [20] 33.5% | viability, T/C [21] 34.2% | viability, T/C [22] 28.8% | viability, T/C [23] 37.1% | viability, T/C [25] 20.6% | viability, T/C [26] 26.6% | viability, T/C [27] 29.4% | viability, T/C [28] 22.3% | viability, T/C [29] 22.9% | viability, T/C [30] 0.13% | viability, T/C [31] 16.9% | viability, T/C [32] 19.2% | viability, T/C [33] 17.3% | viability, T/C [34] 17.1% | viability, T/C [35] 17.4% | viability, T/C [37] 17.4% | viability, T/C [38] 18.9% | viability, T/C [39] 16.9% | viability, T/C [40] 16.4% | viability, T/C [41] 18.4%
3910 nM: IC50 [2]

Nc1ccn(C2OC(CO)C(O)C2(F)F)c(=O)n1 (stereo not drawn)
inactive: viability, T/C (compound 0.0316 µM) 95.5% and 50.3% | viability, T/C (compound 0.1 µM) 57% and 17.7% | viability, T/C (compound 0.316 µM) 36.3% and 10.3% | viability, T/C (compound 1 µM) 35.6% and 9.39% | viability, T/C (compound 3.16 µM) 37.5% and 13% | viability, T/C (compound 10 µM) 39.9% and 13.2%
151 nM and 31.8 nM: IC50 (curve of compound)

Cn1ncnc1[C@H]1c2n[nH]c(=O)c3cc(F)cc(c23)N[C@@H]1c1ccc(F)cc1 + CN1CCN(c2cc(C(=O)Nc3cc4cc(-c5cnn(C)c5)ccc4cn3)ccn2)CC1
active: viability, T/C (second compound 1 µM, first compound 0.000316 µM) 0.16% | viability, T/C (second compound 1 µM, first compound 0.001 µM) 0.26% | viability, T/C (second compound 1 µM, first compound 0.00316 µM) 1.61% | viability, T/C (second compound 1 µM, first compound 0.01 µM) 0.19% | viability, T/C [25] 1.31% | viability, T/C [26] 0.83% | viability, T/C (second compound 3.16 µM, first compound 0.000316 µM) 0.42% | viability, T/C (second compound 3.16 µM, first compound 0.001 µM) 0.22% | viability, T/C (second compound 3.16 µM, first compound 0.00316 µM) 2.43% | viability, T/C (second compound 3.16 µM, first compound 0.01 µM) 0.14% | viability, T/C [31] 1.43% | viability, T/C [32] 2.75% | viability, T/C (second compound 10 µM, first compound 0.000316 µM) 0.15% | viability, T/C (second compound 10 µM, first compound 0.001 µM) 1.85% | viability, T/C (second compound 10 µM, first compound 0.00316 µM) 1.09% | viability, T/C (second compound 10 µM, first compound 0.01 µM) 1.69% | viability, T/C [37] 0.53% | viability, T/C [38] 1.35%
< 0.316 nM: IC50 [3] | IC50 [4] | IC50 [5] | IC50 [6]
inactive: viability, T/C (second compound 0.0316 µM, first compound 0.000316 µM) 100% | viability, T/C (second compound 0.0316 µM, first compound 0.001 µM) 76.1% | viability, T/C (second compound 0.0316 µM, first compound 0.00316 µM) 91.5% | viability, T/C (second compound 0.0316 µM, first compound 0.01 µM) 82.1% | viability, T/C [7] 135% | viability, T/C [8] 102% | viability, T/C (second compound 0.1 µM, first compound 0.000316 µM) 86.2% | viability, T/C (second compound 0.1 µM, first compound 0.001 µM) 84.3% | viability, T/C (second compound 0.1 µM, first compound 0.00316 µM) 111% | viability, T/C (second compound 0.1 µM, first compound 0.01 µM) 112% | viability, T/C [13] 110% | viability, T/C [14] 90.9% | viability, T/C (second compound 0.316 µM, first compound 0.000316 µM) 16.9% | viability, T/C (second compound 0.316 µM, first compound 0.001 µM) 24% | viability, T/C (second compound 0.316 µM, first compound 0.00316 µM) 20.2% | viability, T/C (second compound 0.316 µM, first compound 0.01 µM) 21.3% | viability, T/C [19] 21.5% | viability, T/C [20] 19.5%
> 100 nM: IC50 [1] | IC50 [2]
